In patent US12060351B2, “Thiadiazole IRAK4 inhibitors” (Gilead Sciences, Inc., priority 2018, dated 2024):

Experiments:
TNFα = assay: IRAK4 Monocyte TNFα Cell Based Assay (LPS-stimulated, TR-FRET TNFα detection); parameters: species or system human; settings: Homo sapiens, Monocyte, human monocytes, LPS-stimulated; Table 2 second part (compounds 33-343); read-out: EC50 MONO TNF HTRF
Outline: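 Monocytes (5,000 cells/well) treated with compound (0.1% DMSO) for 1 hour at 37° C, then stimulated with 50 pg/ml LPS for 4 hours. TNFα in medium quantified by TR-FRET two-antibody detection after overnight room-temperature incubation. Percent of control calculated against unstimulated (0%) and LPS-stimulated (100%) cells.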

IRAK4 enzyme = molecular target: T1, IRAK4 enzyme (Homo sapiens, UniProt Q9NWZ3); assay: IRAK4 Biochemical Assay (TR-FRET, STK1 KinEASE); settings: 500 μM ATP, Table 2 second part (compounds 33-343), read-out: IC50 IRAK4-HTBS
T1 construct: purchased Carna Biosciences, Chuo-ku, Kobe, Japan
T1 sequence (Q9NWZ3 1-460): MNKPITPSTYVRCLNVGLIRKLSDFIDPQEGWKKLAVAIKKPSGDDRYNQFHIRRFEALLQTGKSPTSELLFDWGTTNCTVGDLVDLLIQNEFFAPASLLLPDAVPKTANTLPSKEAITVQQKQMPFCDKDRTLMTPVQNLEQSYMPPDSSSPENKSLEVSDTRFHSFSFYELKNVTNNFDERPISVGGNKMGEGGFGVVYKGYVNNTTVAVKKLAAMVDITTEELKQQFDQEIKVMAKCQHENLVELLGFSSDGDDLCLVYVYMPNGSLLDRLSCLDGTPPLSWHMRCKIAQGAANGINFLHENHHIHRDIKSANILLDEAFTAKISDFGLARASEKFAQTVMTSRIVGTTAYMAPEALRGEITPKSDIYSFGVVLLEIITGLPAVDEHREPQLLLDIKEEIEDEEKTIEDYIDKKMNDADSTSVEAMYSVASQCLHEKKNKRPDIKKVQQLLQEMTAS
Outline: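 Human IRAK4 (0.75 nM) preincubated 15 min with compound and 2 μM STK1 peptide, then reacted 120 min at room temperature with 500 μM ATP in HEPES pH 7.0 buffer with MgCl2 and DTT. EDTA stop with Cryptate anti-phosphopeptide antibody and tracer, 60 min; TR-FRET read as 665/615 nm ratio.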

Compound | EC50 (TNFα) [nM] | IC50 (IRAK4 enzyme) [nM]
COC(=O)N[C@H]1CC[C@H](c2nnc(-c3cnc(-c4ccc5cc(C#N)cnn45)cc3NC(C)C)s2)CC1 [Example 126, methyl ((1r,4r)-4-(5-(6-(3-cyanopyrrolo[1,2-b]pyridazin-7-yl)-4-(isopropylamino)pyridin-3-yl)-1,3,4-thiadiazol-2-yl)cyclohexyl)carbamate] | 26.2 | 0.89
COC(=O)NC[C@H]1C[C@H](Nc2cc(-c3ccc4cc(C#N)cnn34)ncc2-c2nnc([C@H]3CC[C@H](NC(=O)C4CC4)CC3)s2)C1 [Example 134, methyl (((1R,3r)-3-((2-(3-cyanopyrrolo[1,2-b]pyridazin-7-yl)-5-(5-((1r,4R)-4-(cyclopropanecarboxamido)cyclohexyl)-1,3,4-thiadiazol-2-yl)pyridin-4-yl)amino)cyclobutyl)methyl)carbamate] | 6.9 | 0.94
N#Cc1cnn2c(-c3cc(NC4COC4)c(-c4nnc([C@H]5CC[C@H](NC(=O)C6CC6)CC5)s4)cn3)ccc2c1 [Example 135, N-((1r,4r)-4-(5-(6-(3-cyanopyrrolo[1,2-b]pyridazin-7-yl)-4-(oxetan-3-ylamino)pyridin-3-yl)-1,3,4-thiadiazol-2-yl)cyclohexyl)cyclopropanecarboxamide] | 10.5 | 0.52
CC(C)Nc1cc(-c2ccc3cc(C#N)cnn23)ncc1-c1nnc([C@H]2CC[C@H](NC(=O)N3CCOCC3)CC2)s1 [Example 139, N-((1r,4r)-4-(5-(6-(3-cyanopyrrolo[1,2-b]pyridazin-7-yl)-4-(isopropylamino)pyridin-3-yl)-1,3,4-thiadiazol-2-yl)cyclohexyl)morpholine-4-carboxamide] | 5.9 | 0.65
CNC(=O)N[C@H]1CC[C@H](c2nnc(-c3cnc(-c4ccc5cc(C#N)cnn45)cc3NC(C)C)s2)CC1 [Example 140, 1-((1r,4r)-4-(5-(6-(3-cyanopyrrolo[1,2-b]pyridazin-7-yl)-4-(isopropylamino)pyridin-3-yl)-1,3,4-thiadiazol-2-yl)cyclohexyl)-3-mcthylurea] | 6.4 | 0.84
N#Cc1cnn2c(-c3cc(NC4COC4)c(-c4nnc([C@H]5CC[C@H](NC(=O)N6CCOCC6)CC5)s4)cn3)ccc2c1 [Example 142, N-((1r,4r)-4-(5-(6-(3-cyanopyrrolo[1,2-b]pyridazin-7-yl)-4-(oxetan-3-ylamino)pyridin-3-yl)-1,3,4-thiadiazol-2-yl)cyclohexyl)morpholine-4-carboxamide] | 9.2 | 0.38
CC(C)Nc1cc(-c2ccc3cc(C#N)cnn23)ncc1-c1nnc(N2C[C@H]3CC[C@@H](C2)[C@@]3(C)O)s1 [Example 153, 7-(5-(5-((1R,5S,8r)-8-hydroxy-8-methyl-3-azabicyclo[3.2.1]octan-3-yl)-1,3,4-thiadiazol-2-yl)-4-(isopropylamino)pyridin-2-yl)pyrrolo[1,2-b]pyridazine-3-carbonitrile] | 7.2 | 0.91
CC(=O)N[C@]1(C)[C@@H]2CC[C@H]1CN(c1nnc(-c3cnc(-c4ccc5cc(C#N)cnn45)cc3NC(C)C)s1)C2 [Example 155, N-((1R,5S,8s)-3-(5-(6-(3-cyanopyrrolo[1,2-b]pyridazin-7-yl)-4-(isopropylamino)pyridin-3-yl)-1,3,4-thiadiazol-2-yl)-8-methyl-3-azabicyclo[3.2.1]octan-8-yl)acetamide] | 7.4 | 1.52
N#Cc1cnn2c(-c3cc(NC4CCOCC4)c(-c4nnc([C@H]5CC[C@H](NC(=O)C6CC6)CC5)s4)cn3)ccc2c1 [Example 156, N-((1r,4r)-4-(5-(6-(3-cyanopyrrolo[1,2-b]pyridazin-7-yl)-4-((tetrahydro-2H-pyran-4-yl)amino)pyridin-3-yl)-1,3,4-thiadiazol-2-yl)cyclohexyl)cyclopropanecarboxamide] | 10.9 | 1.42
CC1(Nc2cc(-c3ccc4cc(C#N)cnn34)ncc2-c2nnc([C@H]3CC[C@H](NC(=O)C4CC4)CC3)s2)COC1 [Example 158, N-((1r,4r)-4-(5-(6-(3-cyanopyrrolo[1,2-b]pyridazin-7-yl)-4-((3-methyloxetan-3-yl)amino)pyridin-3-yl)-1,3,4-thiadiazol-2-yl)cyclohexyl)cyclopropanecarboxamide] | 19.8 | 1.15
CC(=O)N[C@H]1[C@@H]2CCC[C@H]1CN(c1nnc(-c3cnc(-c4ccc5cc(C#N)cnn45)cc3NC(C)C)s1)C2 [Example 165, N-((1R,5S,9r)-3-(5-(6-(3-cyanopyrrolo[1,2-b]pyridazin-7-yl)-4-(isopropylamino)pyridin-3-yl)-1,3,4-thiadiazol-2-yl)-3-lazabicyclo[3.3.1]nonan-9-yl)acetamide] | 39.1 | 1.15

Stronger by EC50 (TNFα), values ahead:

EC50 (TNFα) [nM] | IC50 (IRAK4 enzyme) [nM] | Compound
5.4 | 0.25 | CC(C)Nc1cc(-c2ccc3cc(C#N)cnn23)ncc1-c1nnc([C@H]2CC[C@H](NC(=O)C3CC3)CC2)s1 [Example 125, N-((1r,4r)-4-(5-(6-(3-cyanopyrrolo[1,2-b]pyridazin-7-yl)-4-(isopropylamino)pyridin-3-yl)-1,3,4-thiadiazol-2-yl)cyclohexyl)cyclopropanecarboxamide]
5.2 | 0.46 | CC(C)Nc1cc(-c2ccc3cc(C#N)cnn23)ncc1-c1nnc(N2C[C@H]3CC[C@@H](C2)[C@@H]3NC(=O)C2CC2)s1 [Example 150, N-((1R,5S,8s)-3-(5-(6-(3-cyanopyrrolo[1,2-b]pyridazin-7-yl)-4-(isopropylamino)pyridin-3-yl)-1,3,4-thiadiazol-2-yl)-3-azabicyclo[3.2.1]octan-8-yl)cyclopropanecarboxamide]
4.9 | 0.31 | CC1(Nc2cc(-c3ccc4cc(C#N)cnn34)ncc2-c2nnc(N3C[C@H]4CC[C@@H](C3)[C@H]4O)s2)COC1 [Example 149, 7-(5-(5-((1R,5S,8r)-8-hydroxy-3-azabicyclo[3.2.1]octan-3-yl)-1,3,4-thiadiazol-2-yl)-4-((3-methyloxetan-3-yl)amino)pyridin-2-yl)pyrrolo[1,2-b]pyridazine-3-carbonitrile]
3.1 | 0.34 | COC(=O)NC[C@H]1C[C@H](Nc2cc(-c3ccc4cc(C#N)cnn34)ncc2-c2nnc([C@H]3CC[C@H](NC(=O)N4CCOCC4)CC3)s2)C1 [Example 143, methyl (((1R,3r)-3-((2-(3-cyanopyrrolo[1,2-b]pyridazin-7-yl)-5-(5-((1r,4R)-4-(morpholine-4-carboxamido)cyclohexyl)-1,3,4-thiadiazol-2-yl)pyridin-4-yl)amino)cyclobutyl)methyl)carbamate]
2.8 | 0.52 | C[C@H](C#N)Nc1cc(-c2ccc3cc(C#N)cnn23)ncc1-c1nnc([C@H]2CC[C@H](NC(=O)C3CC3)CC2)s1 [Example 160, N-((1R,4r)-4-(5-(4-(((R)-1-cyanoethyl)amino)-6-(3-cyanopyrrolo[1,2-b]pyridazin-7-yl)pyridin-3-yl)-1,3,4-thiadiazol-2-yl)cyclohexyl)cyclopropanecarboxamide]
2.6 | 1.09 | CC(C)Nc1cc(-c2ccc3cc(C#N)cnn23)ncc1-c1nnc(N2C[C@H]3CC[C@@H](C2)[C@@H]3NC(=O)N2CCN(S(C)(=O)=O)CC2)s1 [Example 106, N-((1R,5S,8s)-3-(5-(6-(3-cyanopyrrolo[1,2-b]pyridazin-7-yl)-4-(isopropylamino)pyridin-3-yl)-1,3,4-thiadiazol-2-yl)-3-azabicyclo[3.2.1]octan-8-yl)-4-(methylsulfonyl)piperazine-1-carboxamide]
2.3 | 0.63 | CC(=O)N[C@@H]1[C@@H]2CC[C@H]1CN(c1nnc(-c3cnc(-c4ccc5cc(C#N)cnn45)cc3NC3(C)COC3)s1)C2 [Example 144, N-((1R,5S,8s)-3-(5-(6-(3-cyanopyrrolo[1,2-b]pyridazin-7-yl)-4-((3-methyloxetan-3-yl)amino)pyridin-3-yl)-1,3,4-thiadiazol-2-yl)-3-azabicyclo[3.2.1]octan-8-yl)acetamide]
2.3 | 0.66 | CC(=O)N[C@@H]1[C@@H]2CCC[C@H]1CN(c1nnc(-c3cnc(-c4ccc5cc(C#N)cnn45)cc3NC(C)C)s1)C2 [Example 166, N-((1R,5S,9s)-3-(5-(6-(3-cyanopyrrolo[1,2-b]pyridazin-7-yl)-4-(isopropylamino)pyridin-3-yl)-1,3,4-thiadiazol-2-yl)-3-azabicyclo[3.3.1]nonan-9-yl)acetamide]
1.8 | 1.03 | CC(=O)N[C@]1(C)[C@@H]2CC[C@H]1CN(c1nnc(-c3cnc(-c4ccc5cc(C#N)cnn45)cc3N[C@H](C)C#N)s1)C2 [Example 157, N-((1R,5S,8S)-3-(5-(4-(((R)-1-cyanoethyl)amino)-6-(3-cyanopyrrolo[1,2-b]pyridazin-7-yl)pyridin-3-yl)-1,3,4-thiadiazol-2-yl)-8-methyl-3-azabicyclo[3.2.1]octan-8-yl)acetamide]
